The structures appear in SMILES notation.

The target of this assay is Human neutrophil elastase (Homo sapiens (Human), UniProt P08246). The experiment in a line: Human Neutrophil Elastase Assay. It counts as biochemical. Particulars: substrate MeOSuc-Ala-Ala-Pro-Val-AMC 250 μM, pH 7.5, fluorescence. How it is done: Human Neutrophil Elastase Assay
Sequence of Human neutrophil elastase (P08246 30-267): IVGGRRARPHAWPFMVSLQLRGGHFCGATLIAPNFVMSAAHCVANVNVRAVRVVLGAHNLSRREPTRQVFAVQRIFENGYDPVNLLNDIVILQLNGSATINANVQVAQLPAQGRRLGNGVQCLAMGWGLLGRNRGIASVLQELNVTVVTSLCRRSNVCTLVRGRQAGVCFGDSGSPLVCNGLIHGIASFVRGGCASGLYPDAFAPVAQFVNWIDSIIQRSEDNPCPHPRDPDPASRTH
All other materials were of the highest grade commercially available.
The following buffers were used: Compound buffer: 100 mM Tris, 500 mM NaCl, adjusted to pH 7.5; Assay buffer: 100 mM Tris, 500 mM NaCl, adjusted to pH 7.5, containing 0.01% BSA.
Assay conditions: Test compounds were prediluted in DMSO and subsequently in compound buffer (5% DMSO final). […] After inactivation of the enzyme, fluorescence intensities were measured at 380 nm excitation and 460 nm emission wavelengths.
Each plate contains wells with a high value control (DMSO+enzyme+substrate) and wells with a low value control (DMSO+inactivated enzyme+substrate). IC50 values were estimated using a sigmoidal concentration response curve with variable slope. Means of low values were taken as 0%, means of high values as 100%. IC50 values of selected compound in the Neutrophil Elastase assay: […]
In turn, `Cc1nnc(CNC(=O)c2cn(C3CCC3)c(C)c(-c3cccc(C(F)(F)F)c3)c2=O)o1` [Example 24.1, 1-Cyclobutyl-6-methyl-4-oxo-5-(3-trifluoromethyl-phenyl)-1,4-dihydro-pyridine-3-carboxylic acid (5-methyl-[1,3,4]oxadiazol-2-ylmethyl)-amide] yielded a half-inhibitory concentration (IC50) of 57 nM.

For `Cc1nnc(CNC(=O)c2cn(C3CCC3)c(C)c(-c3cccc(C(F)F)c3)c2=O)o1` [Example 24.2, 1-Cyclobutyl-5-(3-difluoromethyl-phenyl)-6-methyl-4-oxo-1,4-dihydro-pyridine-3-carboxylic acid (5-methyl-[1,3,4]oxadiazol-2-ylmethyl)-amide], the concentration for half-maximal inhibition (IC50) worked out at 55 nM.

With `CC[C@@H](C)n1cc(C(=O)NCc2nnc(C)o2)c(=O)c(-c2cccc(C(F)(F)F)c2)c1C` [Example 25.1, (R)-1-sec-Butyl-6-methyl-4-oxo-5-(3-trifluoromethyl-phenyl)-1,4-dihydro-pyridine-3-carboxylic acid (5-methyl-[1,3,4]oxadiazol-2-ylmethyl)-amide], 37 nM corresponded to half-maximal inhibition (IC50).

As for `CC[C@@H](C)n1cc(C(=O)NCc2nnc(C)o2)c(=O)c(-c2cccc(C(F)F)c2)c1C` [Example 25.2, (R)-1-sec-Butyl-5-(3-difluoromethyl-phenyl)-6-methyl-4-oxo-1,4-dihydro-pyridine-3-carboxylic acid (5-methyl-[1,3,4]oxadiazol-2-ylmethyl)-amide], the 50% inhibitory concentration (IC50) was found to be 30 nM.

Turning to `CC[C@H](C)n1cc(C(=O)NCc2nnc(C)o2)c(=O)c(-c2cccc(C(F)F)c2)c1C` [Example 26, (S)-1-sec-Butyl-5-(3-difluoromethyl-phenyl)-6-methyl-4-oxo-1,4-dihydro-pyridine-3-carboxylic acid (5-methyl-[1,3,4]oxadiazol-2-ylmethyl)-amide], the IC50 was 22 nM.

Compound `Cc1c(-c2ccnc(C(F)(F)F)c2)c(=O)c(C(=O)NCc2ccc([S+](C)[O-])cc2)cn1C(C)C` (centres unmarked) [Example 27.2, 1-Isopropyl-2-methyl-4-oxo-2′-trifluoromethyl-1,4-dihydro-[3,4′]bipyridinyl-5-carboxylic acid 4-methanesulfinyl-benzylamide] yielded an IC50 of 51 nM.

Compound `Cc1cc(CNC(=O)c2cn(C(C)C)c(C)c(-c3cccc(C(F)(F)F)c3)c2=O)ccc1S(C)(=O)=O` [Example 28.1, 1-Isopropyl-6-methyl-4-oxo-5-(3-trifluoromethyl-phenyl)-1,4-dihydro-pyridine-3-carboxylic acid 4-methanesulfonyl-3-methyl-benzylamide] had an IC50 of 7 nM.

The compound `Cc1cc(CNC(=O)c2cn(C(C)C)c(C)c(-c3cccc(C(F)F)c3)c2=O)ccc1S(C)(=O)=O` [Example 28.2, 5-(3-Difluoromethyl-phenyl)-1-isopropyl-6-methyl-4-oxo-1,4-dihydro-pyridine-3-carboxylic acid 4-methanesulfonyl-3-methyl-benzylamide] showed a half-inhibitory concentration (IC50) of 6 nM.

Compound `Cc1cc(CNC(=O)c2cn(C(C)C)c(C)c(-c3ccnc(C(F)(F)F)c3)c2=O)ccc1S(C)(=O)=O` [Example 28.3, 1-Isopropyl-2-methyl-4-oxo-2′-trifluoromethyl-1,4-dihydro-[3,4]bipyridinyl-5-carboxylic acid 4-methanesulfonyl-3-methyl-benzylamide] gave an IC50 of 27 nM.

In turn, `Cc1c(-c2cccc(C(F)(F)F)c2)c(=O)c(C(=O)NCc2ccc3c(c2)CCS3(=O)=O)cn1C(C)C` [Example 29.1, 1-Isopropyl-6-methyl-4-oxo-5-(3-trifluoromethyl-phenyl)-1,4-dihydro-pyridine-3-carboxylic acid (1,1-dioxo-2,3-dihydro-1H-1λ^6-benzo[b]thiophen-5-ylmethyl)-amide] showed an IC50 of 4 nM.

In turn, `Cc1c(-c2cccc(C(F)F)c2)c(=O)c(C(=O)NCc2ccc3c(c2)CCS3(=O)=O)cn1C(C)C` [Example 29.2, 5-(3-Difluoromethyl-phenyl)-1-isopropyl-6-methyl-4-oxo-1,4-dihydro-pyridine-3-carboxylic acid (1,1-dioxo-2,3-dihydro-1H-1λ^6-benzo[b]thiophen-5-ylmethyl)-amide] had a half-inhibitory concentration (IC50) of 3 nM.

As for `Cc1c(-c2ccnc(C(F)(F)F)c2)c(=O)c(C(=O)NCc2ccc3c(c2)CCS3(=O)=O)cn1C(C)C` [Example 29.3, 1-Isopropyl-2-methyl-4-oxo-2′-trifluoromethyl-1,4-dihydro-[3,4]bipyridinyl-5-carboxylic acid (1,1-dioxo-2,3-dihydro-1H-1λ^6-benzo[b]thiophen-5-ylmethyl)-amide], the IC50 stood at 15 nM.

`CCS(=O)(=O)c1ccc(CNC(=O)c2cn(C(C)C)c(C)c(-c3cccc(C(F)(F)F)c3)c2=O)cc1` [Example 30.1, 1-Isopropyl-6-methyl-4-oxo-5-(3-trifluoromethyl-phenyl)-1,4-dihydro-pyridine-3-carboxylic acid 4-ethanesulfonyl-benzylamide] yielded a concentration for half-maximal inhibition (IC50) of 13 nM.

As for `CCc1c(-c2cccc(C(F)(F)F)c2)c(=O)c(C(=O)NCc2ccc(S(=O)(=O)CC)cc2)cn1C(C)C` [Example 30.2, 6-Ethyl-1-isopropyl-4-oxo-5-(3-trifluoromethyl-phenyl)-1,4-dihydro-pyridine-3-carboxylic acid 4-ethanesulfonyl-benzylamide], the IC50 worked out at 11 nM.

Turning to `Cc1c(-c2cccc(C(F)(F)F)c2)c(=O)c(C(=O)NCc2ccc(S(=O)(=O)C3CC3)cc2)cn1C(C)C` [Example 31, 1-Isopropyl-6-methyl-4-oxo-5-(3-trifluoromethyl-phenyl)-1,4-dihydro-pyridine-3-carboxylic acid 4-cyclopropanesulfonyl-benzylamide], the IC50 was found to be 5.2 nM.

With `Cc1c(-c2cccc(C(F)(F)F)c2)c(=O)c(C(=O)NCc2ccc(S(C)(=O)=O)c(F)c2)cn1C(C)C` [Example 32, 1-Isopropyl-6-methyl-4-oxo-5-(3-trifluoromethyl-phenyl)-1,4-dihydro-pyridine-3-carboxylic acid 3-fluoro-4-methanesulfonyl-benzylamide], inhibition was half-maximal at 15 nM (IC50).

For the compound `Cc1c(-c2cccc(C(F)F)c2)c(=O)c(C(=O)NCc2ccc(S(C)(=O)=O)c(F)c2)cn1C(C)C` [Example 33, 5-(3-Difluoromethyl-phenyl)-1-isopropyl-6-methyl-4-oxo-1,4-dihydro-pyridine-3-carboxylic acid 3-fluoro-4-methanesulfonyl-benzylamide], 16 nM corresponded to half-maximal inhibition (IC50).

For the compound `Cc1c(-c2cccc(C(F)(F)F)c2)c(=O)c(C(=O)NCc2ccc(S(C)(=O)=O)cc2F)cn1C(C)C` [Example 34, 1-Isopropyl-6-methyl-4-oxo-5-(3-trifluoromethyl-phenyl)-1,4-dihydro-pyridine-3-carboxylic acid 2-fluoro-4-methanesulfonyl-benzylamide], half-maximal inhibition (IC50) was put at 26 nM.

Turning to `Cc1c(-c2cccc(C(F)F)c2)c(=O)c(C(=O)NCc2ccc(S(C)(=O)=O)cc2F)cn1C(C)C` [Example 35, 5-(3-Difluoromethyl-phenyl)-1-isopropyl-6-methyl-4-oxo-1,4-dihydro-pyridine-3-carboxylic acid 2-fluoro-4-methanesulfonyl-benzylamide], the IC50 was determined as 17 nM.

With `Cc1cc(S(C)(=O)=O)ccc1CNC(=O)c1cn(C(C)C)c(C)c(-c2cccc(C(F)(F)F)c2)c1=O` [Example 36, 1-Isopropyl-6-methyl-4-oxo-5-(3-trifluoromethyl-phenyl)-1,4-dihydro-pyridine-3-carboxylic acid 4-methanesulfonyl-2-methyl-benzylamide], the half-maximal inhibitory concentration (IC50) came to 19 nM.

For the compound `Cc1cc(S(C)(=O)=O)ccc1CNC(=O)c1cn(C(C)C)c(C)c(-c2cccc(C(F)F)c2)c1=O` [Example 37, 5-(3-Difluoromethyl-phenyl)-1-isopropyl-6-methyl-4-oxo-1,4-dihydro-pyridine-3-carboxylic acid 4-methanesulfonyl-2-methyl-benzylamide], the 50% inhibitory concentration (IC50) stood at 27 nM.

Compound `Cc1c(-c2cccc(C(F)(F)F)c2)c(=O)c(C(=O)NCc2cn3c(n2)S(=O)(=O)CC3)cn1C(C)C` [Example 38, 1-Isopropyl-6-methyl-4-oxo-5-(3-trifluoromethyl-phenyl)-1,4-dihydro-pyridine-3-carboxylic acid (1,1-dioxo-2,3-dihydro-1H-1λ^6-imidazo[2,1-b]thiazol-6-ylmethyl)-amide] showed an IC50 of 5.3 nM.

For the compound `Cc1c(-c2cccc(C(F)F)c2)c(=O)c(C(=O)NCc2ccc(S(C)(=O)=O)s2)cn1C(C)C` [Example 40, 5-(3-Difluoromethyl-phenyl)-1-isopropyl-6-methyl-4-oxo-1,4-dihydro-pyridine-3-carboxylic acid (5-methanesulfonyl-thiophen-2-ylmethyl)-amide], the half-inhibitory concentration (IC50) was determined as 31 nM.

Compound `COC[C@H](C)n1cc(C(=O)NCc2ccc(S(C)(=O)=O)cc2)c(=O)c(-c2cccc(C(F)F)c2)c1C` [Example 42, (S)-5-(3-Difluoromethyl-phenyl)-1-(2-methoxy-1-methyl-ethyl)-6-methyl-4-oxo-1,4-dihydro-pyridine-3-carboxylic acid 4-methanesulfonyl-benzylamide] returned an IC50 of 8.1 nM.

Compound `COC[C@@H](C)n1cc(C(=O)NCc2ccc(S(C)(=O)=O)cc2)c(=O)c(-c2cccc(C(F)F)c2)c1C` [Example 44, (R)-5-(3-Difluoromethyl-phenyl)-1-(2-methoxy-1-methyl-ethyl)-6-methyl-4-oxo-1,4-dihydro-pyridine-3-carboxylic acid 4-methanesulfonyl-benzylamide] came in with an IC50 of 45 nM.

In turn, `Cc1c(-c2cccc(C(F)(F)F)c2)c(=O)c(C(=O)NCc2ccc(S(C)(=O)=O)cc2)cn1CCF` [Example 45, 1-(2-Fluoro-ethyl)-6-methyl-4-oxo-5-(3-trifluoromethyl-phenyl)-1,4-dihydro-pyridine-3-carboxylic acid 4-methanesulfonyl-benzylamide] yielded an IC50 of 34 nM.
